What all share (type): cell-based
Assay [1] deals with Streptococcus pneumoniae ATCC6303. As to the kind of experiment: MIC, microbroth dilution (NCCLS). The conditions noted are these: rifS strain, THY Broth with 1 mg/mL catalase, 5% CO2, 37° C., read-out: Antimicrobial activity (MIC).
For assay [2], the system named is Staphylococcus epidermidis ATCC12228. As to the kind of experiment: MIC, microbroth dilution (NCCLS). To be noted: rifS strain, Cation-Adjusted Mueller-Hinton Broth, 37° C., read-out: Antimicrobial activity (MIC).
Assay [3] concerns Haemophilus influenzae ATCC10211. The experiment in a line: MIC, microbroth dilution (NCCLS). The conditions noted are these: rifS strain, BHI Broth with NAD and hematin, 37° C., read-out: Antimicrobial activity (MIC).
Assay [4] relates to Streptococcus pyogenes ATCC19615. As to the kind of experiment: MIC, microbroth dilution (NCCLS). To be noted: rifS strain, THY Broth, 37° C., read-out: Antimicrobial activity (MIC).
Assay [5] relates to Enterococcus faecalis ATCC29212. The experiment in a line: MIC, microbroth dilution (NCCLS). The conditions noted are these: rifS strain, BHI Broth, 37° C., read-out: Antimicrobial activity (MIC).
Assay [6] relates to Staphylococcus aureus ATCC29213 rpoB^D417Y. As to the kind of experiment: microbe, parasite or virus in culture. The conditions noted are these: ATCC29213, read-out: Antimicrobial activity (MIC). In outline:
(§1)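 MICs by NCCLS broth microdilution, incubation at 37 °C, in cation-adjusted Mueller-Hinton broth. Strains: rifampin-resistant S. aureus ATCC 29213 with rpoB D417Y or H418Y, and quinolone-resistant EN1252a carrying gyrA S84L plus grlA S80F.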

For assay [7], the system named is Staphylococcus aureus ATCC29213 rpoB^H418Y. As to the kind of experiment: microbe, parasite or virus in culture. To be noted: ATCC29213, read-out: Antimicrobial activity (MIC). In outline: as §1
Assay [8] concerns Staphylococcus aureus EN1252a gyrA^S84L grlA^S80F. The experiment in a line: microbe, parasite or virus in culture. The conditions noted are these: read-out: Antimicrobial activity (MIC). In a few lines: as §1
In assay [9] the test system is Escherichia coli ATCC25922. As to the kind of experiment: MIC, microbroth dilution (NCCLS). To be noted: rifS strain, Cation-Adjusted Mueller-Hinton Broth, 37° C., read-out: Antimicrobial activity (MIC).
The test system of assay [10] is Staphylococcus aureus ATCC29213. As to the kind of experiment: MIC, microbroth dilution (NCCLS). To be noted: rifS strain, Cation-Adjusted Mueller-Hinton Broth, 37° C., read-out: Antimicrobial activity (MIC).
For assay [11], the system named is Mycobacterium smegmatis ATCC700084. As to the kind of experiment: MIC, microbroth dilution (NCCLS). The conditions noted are these: Mycolicibacterium smegmatis, rifS strain, Middlebrook Broth plus ADC Enrichment, 37° C., read-out: Antimicrobial activity (MIC).

Each structure is given as a SMILES string. ≈ marks a conversion by molar mass, not a printed value.

For the compound `CO[C@H]1/C=C/O[C@@]2(C)Oc3c(C)c(O)c4c(O)c(c(CN[C@@H]5CCN(c6cc7c(cc6F)c(=O)c(C(=O)O)cn7C6CC6)C5)c(O)c4c3C2=O)NC(=O)/C(C)=C\C=C\[C@H](C)[C@H](O)[C@@H](C)[C@@H](O)[C@@H](C)[C@H](OC(C)=O)[C@@H]1C` [Example 15, (R)-3-[1-(3-carboxy-1-cyclopropyl-6-fluoro-4-oxo-1,4-dihydroquinolin-7-yl)-pyrrolidinyl-3-aminomethyl]rifamycin SV], the MIC lay within 0.008 to 0.125 µg/mL (≈ 0.00768 to 0.12 µM) in assay [1]; 0.008 to 0.063 µg/mL (≈ 0.00768 to 0.0605 µM) in assay [2]; 0.125 to 2 µg/mL (≈ 0.12 to 1.92 µM) in [3]; 0.008 to 0.063 µg/mL (≈ 0.00768 to 0.0605 µM) in [4]; 2 to 32 µg/mL (≈ 1.92 to 30.7 µM) in [5]; 0.06 to 32 µg/mL (≈ 0.0576 to 30.7 µM) in assay [6]. Further, the MIC in assay [7] lay in the range of 0.06 to 16 µg/mL (≈ 0.0576 to 15.4 µM); in assay [8], 0.004 to 0.5 µg/mL (≈ 0.00384 to 0.48 µM); in assay [9], 0.125 to 8 µg/mL (≈ 0.12 to 7.68 µM); in [10] it was 0.004 to 0.5 µg/mL (≈ 0.00384 to 0.48 µM); in [11], 0.5 to 64 µg/mL.
As to `CO[C@H]1/C=C/O[C@@]2(C)Oc3c(C)c(O)c4c(O)c(c(CN[C@H]5CCN(c6cc7c(cc6F)c(=O)c(C(=O)O)cn7C6CC6)C5)c(O)c4c3C2=O)NC(=O)/C(C)=C\C=C\[C@H](C)[C@H](O)[C@@H](C)[C@@H](O)[C@@H](C)[C@H](OC(C)=O)[C@@H]1C` [Example 16, (S)-3-[1-(3-carboxy-1-cyclopropyl-6-fluoro-4-oxo-1,4-dihydroquinolin-7-yl)-pyrrolidinyl-3-aminomethyl]rifamycin SV], the MIC fell in the range of 0.008 to 0.125 µg/mL (≈ 0.00768 to 0.12 µM) in assay [1]; 0.008 to 0.063 µg/mL (≈ 0.00768 to 0.0605 µM) in assay [2]; 0.125 to 2 µg/mL (≈ 0.12 to 1.92 µM) in assay [3]; 0.008 to 0.063 µg/mL (≈ 0.00768 to 0.0605 µM) in assay [4]; 2 to 32 µg/mL (≈ 1.92 to 30.7 µM) in assay [5]; 0.06 to 32 µg/mL (≈ 0.0576 to 30.7 µM) in assay [6]. The MIC lay in the range of 0.06 to 16 µg/mL (≈ 0.0576 to 15.4 µM) in assay [7]; 0.004 to 0.5 µg/mL (≈ 0.00384 to 0.48 µM) in assay [8]; 0.125 to 8 µg/mL (≈ 0.12 to 7.68 µM) in assay [9]; 0.004 to 0.5 µg/mL (≈ 0.00384 to 0.48 µM) in assay [10]; 0.5 to 64 µg/mL in assay [11].
In the case of `CO[C@H]1/C=C/O[C@@]2(C)Oc3c(C)c(O)c4c(c3C2=O)C(=O)C(N2CCN(c3ccc(N5C[C@H](CNC(C)=O)OC5=O)cc3F)CC2)=C(NC(=O)/C(C)=C\C=C\[C@H](C)[C@H](O)[C@@H](C)[C@@H](O)[C@@H](C)[C@H](OC(C)=O)[C@@H]1C)C4=O` [Example 23, (S)-3-[4-[4-(5-Acetylaminomethyl-2-oxo-oxazolidin-3-yl)-2-fluoro-phenyl]-piperazin-1-yl]rifamycin S], the MIC fell in the range of 0.008 to 0.125 µg/mL (≈ 0.00777 to 0.121 µM) in [1]; 0.008 to 0.063 µg/mL (≈ 0.00777 to 0.0612 µM) in assay [2]; 0.125 to 2 µg/mL (≈ 0.121 to 1.94 µM) in [3]; 0.008 to 0.063 µg/mL (≈ 0.00777 to 0.0612 µM) in [4]; 2 to 32 µg/mL (≈ 1.94 to 31.1 µM) in assay [5]; 0.06 to 32 µg/mL (≈ 0.0582 to 31.1 µM) in assay [6]. For the same compound, the MIC in assay [7] lay in the range of 0.06 to 16 µg/mL (≈ 0.0582 to 15.5 µM); in [8], 0.004 to 0.5 µg/mL (≈ 0.00388 to 0.485 µM); in [9] it was 0.125 to 8 µg/mL (≈ 0.121 to 7.77 µM); in assay [10], 0.004 to 0.5 µg/mL (≈ 0.00388 to 0.485 µM); in assay [11], 0.5 to 64 µg/mL.
In the case of `CO[C@H]1/C=C/O[C@@]2(C)Oc3c(C)c(O)c4c(c3C2=O)C(=O)C(NCCN2CCN(c3ccc(N5C[C@H](CNC(C)=O)OC5=O)cc3F)CC2)=C(NC(=O)/C(C)=C\C=C\[C@H](C)[C@H](O)[C@@H](C)[C@@H](O)[C@@H](C)[C@H](OC(C)=O)[C@@H]1C)C4=O` [Example 24, (S)-3-[4-[4-(5-Acetylaminomethyl-2-oxo-oxazolidin-3-yl)-2-fluoro-phenyl]-piperazin-1-ylethylamino]-rifamycin S], the MIC in assay [1] was in the range of 0.008 to 0.125 µg/mL (≈ 0.00745 to 0.116 µM); in assay [2], 0.008 to 0.063 µg/mL (≈ 0.00745 to 0.0587 µM); in assay [3], 0.125 to 2 µg/mL (≈ 0.116 to 1.86 µM); in assay [4], 0.008 to 0.063 µg/mL (≈ 0.00745 to 0.0587 µM); in [5], 2 to 32 µg/mL (≈ 1.86 to 29.8 µM); in [6], 0.06 to 32 µg/mL (≈ 0.0559 to 29.8 µM). Besides, the MIC in [7] was 0.06 to 16 µg/mL (≈ 0.0559 to 14.9 µM); in assay [8], 0.004 to 0.5 µg/mL (≈ 0.00373 to 0.466 µM); in assay [9], 0.125 to 8 µg/mL (≈ 0.116 to 7.45 µM); in assay [10] it was 0.004 to 0.5 µg/mL (≈ 0.00373 to 0.466 µM); in assay [11], 0.5 to 64 µg/mL.
In the case of `CO[C@H]1/C=C/O[C@@]2(C)Oc3c(C)c(O)c4c(c3C2=O)C(=O)C(NCC2CN(c3cc5c(cc3F)c(=O)c(C(=O)O)cn5C3CC3)C2)=C(NC(=O)/C(C)=C\C=C\[C@H](C)[C@H](O)[C@@H](C)[C@@H](O)[C@@H](C)[C@H](OC(C)=O)[C@@H]1C)C4=O` [Example 25, 3-[1-(3-Carboxy-1-cyclopropyl-6-fluoro-4-oxo-1,4-dihydroquinolin-7-yl)azetidin-3-methylamino)rifamycin S], the MIC was in the range of 0.008 to 0.125 µg/mL (≈ 0.0078 to 0.122 µM) in [1]; 0.008 to 0.063 µg/mL (≈ 0.0078 to 0.0615 µM) in assay [2]; 0.125 to 2 µg/mL (≈ 0.122 to 1.95 µM) in assay [3]; 0.008 to 0.063 µg/mL (≈ 0.0078 to 0.0615 µM) in assay [4]; 2 to 32 µg/mL (≈ 1.95 to 31.2 µM) in [5]; 0.06 to 32 µg/mL (≈ 0.0585 to 31.2 µM) in [6]. In addition, the MIC in assay [7] was in the range of 0.06 to 16 µg/mL (≈ 0.0585 to 15.6 µM); in assay [8] it was 0.004 to 0.5 µg/mL (≈ 0.0039 to 0.488 µM); in [9], 0.125 to 8 µg/mL (≈ 0.122 to 7.8 µM); in assay [10], 0.004 to 0.5 µg/mL (≈ 0.0039 to 0.488 µM); in [11], 0.5 to 64 µg/mL.

The values above are taken from patent publication US7247634B2, “Rifamycin derivatives effective against drug-resistant microbes” (Cumbre Pharmaceuticals Inc., priority 2004, dated 2007).
